The results in this text go back to patent EP4692059A1, “CATIONIC LIPID HAVING DISULFIDE BOND” (Tohoku University, priority 2023, dated 2024).

The nature of data set [1]: Measurement of Liposomal pKa (TNS fluorescence, LNP without nucleic acid). Particulars: cationic lipid:DOPC:Chol = 52.5:7.5:40 (molar ratio) + DMG-PEG2k about 1.5 mol, pH at which the relative fluorescence intensity was 50%.
Method: Lipid nano particles (LNP) without containing nucleic acid were used for the evaluation of Liposomal pKa.
To the obtained mixture was further added DMG-PEG2k (2 mM ethanol solution) in an amount of about 1.5 mol with respect to the total amount 100 mol of cationic lipid, DOPC, and Chol, and then ethanol was added to prepare an ethanol solution of the lipid (total amount: 360 µL).
An acidic malic acid buffer (20 mM, pH 3.0) (1080 µL) containing NaCl at a final concentration of 30 mM and an ethanol solution (360 µL) of lipid were each weighed in a syringe. Using an ultra high-speed nanomedicament producing apparatus NanoAssmblr (manufactured by Precision NanoSystems), LNP was prepared under the conditions of addition rate of acidic buffer solution: 3 mL/min, addition rate of ethanol solution of lipid: 1 mL/min, and syringe holder temperature: 25°C, and collected in a 15 mL tube. […]
20 mM Citrate buffer, sodium phosphate buffer, and tris HCl buffer, each containing NaCl at a final concentration of 150 mM and adjusted to various pHs within the range of pH 3.0 to 10.0, were prepared. […] The relative fluorescence intensity was calculated as a percentage, with the maximum value of the fluorescence intensity in each LNP being 100% and the minimum value being 0%.
Data set [2] concerns mouse red blood cells. Put plainly: Hemolysis activity (membrane fusion ability) at pH 7.4 and 5.5 (Experimental Example 5). The class given is cell-based, ICR mice. The procedure:
LNPs encapsulating mRNA that expresses luciferase (cationic lipid:DOPC:Chol:DMG-PEG2k=52.5:7.5:40:1.5 (molar ratio)) were prepared using the method described in [Experimental Example 2] 1. As cationic lipid, the cationic lipid of Comparative Example, compound 9, compound 14, compound 27, compound 33, or compound 42 was used.
(§1) The collected blood was immediately mixed with 1.0 µL of heparin solution (5000 U/5 mL). About 9 mL of PBS was added to the blood to make the total volume 10 mL. The mixture was then mixed by inversion and centrifuged (4°C, 400 g, 10 min). The supernatant containing plasma components was removed using a Pasteur pipette. About 9 mL of PBS was added to the blood cell components to make the total volume 10 mL, and the mixture was centrifuged again. A similar washing procedure was repeated 4 times to obtain mouse red blood cells.
2, 4, 6, 8, and 10 µL of mouse red blood cells were weighed and diluted with PBS containing 1 w/v% Triton-X100. The entire diluted solution was transferred to a clear 96-well plate, and the absorbance at 545 nm was measured using a plate reader. A calibration curve was created using these samples, and the point where the absorbance reached 1 was determined as the amount of blood cells to be used in the hemolysis assay. Empty LNP solution was weighed into an Eppendorf tube and diluted with malic acid-PBS buffer (pH 5.5, pH 7.4), followed by addition of mouse red blood cells. The final lipid concentration was 100 µM at pH 7.4 and 33.3 µM at pH 5.5, and the final volume of the solution was 250 µL. Each tube was shaken at 1900 rpm for 15 min. Each sample was centrifuged under centrifugation conditions (4°C, 400 g, 5 min), and 100 µL of the supernatant was transferred to a clear 96-well plate and the absorbance at 545 nm was measured. Untreated red blood cells were used as the negative control. […] The hemolysis activity of each sample was calculated using the following formula: Hemolysis activity (%) = 100×(absorbance of each sample - absorbance of negative control)/(absorbance of positive control - absorbance of negative control).

The subject of a further data set is HeLa cells. The data set can be described thus: In vitro gene expression in HeLa cells (luciferase mRNA-encapsulating LNP, cumulative luminescence in 24 hr).
A further data set deals with liver. The data set can be described thus: In vivo gene expression, luciferase luminescence in the liver after tail vein administration (Experimental Example 4). Particulars: BALB/c mouse, mRNA 0.05 mg/kg; for amount of luminescence (photons/sec) in liver: tail vein, 4.5 hr after administration, LNP cationic lipid:DOPC:Chol:DMG-PEG2k = 52.5:7.5:40:1.5, prepared as in Experimental Example 2; for relative amount of luminescence: liver luminescence relative to cationic lipid of Comparative Example. The procedure: LNP encapsulating mRNA that expresses luciferase (cationic lipid:DOPC:Chol:DMG-PEG2k = 52.5:7.5:40:1.5 (molar ratio)) was prepared by the method described in [Experimental Example 2], 1.
The prepared each mRNA-encapsulating LNP dispersion was administered from the tail vein of BALB/c mouse (male, 5-week-old). The dose of mRNA was set to 0.05 mg per 1 kg body weight of the mouse, and the dose of the mRNA-encapsulating LNP dispersion was set to 10 µL per 1 g body weight of the mouse. After 4.5 hr from the administration of the mRNA-encapsulating LNP dispersion, a PBS solution of D-luciferin potassium was administered into the abdominal cavity of the mouse. The dose of D-luciferin potassium was set to 3 mg per mouse, and the dose of the PBS solution of D-luciferin potassium was set to 200 µL per mouse. After 15 min from the administration of the PBS solution of D-luciferin potassium, the mouse was euthanized, and the liver was isolated. The luminescence in the liver was quantified using an in vivo imaging system (IVIS) with an exposure of 10 sec. The amount of luminescence in the liver was quantified by image analysis using Live Imaging software attached to IVIS. The amount of luminescence (photons/sec) was calculated from the acquired image and used as an index of gene expression activity. The cationic lipids used, the luminescence intensity in the liver, and the relative luminescence intensity (= luminescence intensity in the liver when cationic lipid of Example was used/luminescence intensity in the liver when cationic lipid of Comparative Example was used) are shown in Table 7-1 to Table 7-3. "E+0a" (a: integer) indicated in Table 7-1 to Table 7-3 means "10^a". For example, "3.94E+09" means "3.94×10^9". […]

Data set [3] in a line: Particle size, PdI and zeta potential of mRNA-encapsulating LNPs by dynamic light scattering (Experimental Example 2). The class given is physicochemical. The procedure: An acidic buffer solution (total amount: 1080 µL) of nucleic acid was prepared by weighing 7.2 µg of mRNA solution (0.6 mg/mL) in a 5 mL tube and adding acidic malate buffer (20 mM, pH 3.0).
An acidic buffer solution of nucleic acid and an ethanol solution of lipid were each weighed in a syringe.
The particle size, PdI (Polydispersity Index), and zeta potential of the mRNA-encapsulating LNP prepared by the method of the above-mentioned 1 were measured by a dynamic light scattering method (Zetasizer Nano; Malvern).

Data set [4] deals with mouse red blood cells. The data set can be described thus: Hemolysis activity (membrane fusion ability) at pH 7.4 and 5.5 (Experimental Example 8). The class given is cell-based, ICR mice. The procedure: LNP encapsulating mRNA that expresses luciferase (cationic lipid:DOPC:Chol:DMG-PEG2k = 52.5:7.5:40:1.5 (molar ratio)) was prepared by the method described in […], 1. As cationic lipid, the cationic lipid of Comparative Example, compound 94, compound 112, compound 162, compound 181, or compound 194 was used.
as §1
2, 4, 6, 8, and 10 µL of mouse red blood cells were weighed and diluted with PBS containing 1 w/v% Triton-X100. The entire diluted solution was transferred to a clear 96-well plate, and the absorbance at 545 nm was measured using a plate reader. A calibration curve was created using these samples, and the point where the absorbance reached 1 was determined as the amount of blood cells to be used in the hemolysis assay. Empty LNP solution was weighed into an Eppendorf tube and diluted with malic acid-PBS buffer (pH 5.5, pH 7.4), followed by addition of mouse red blood cells. The final lipid concentration was 100 µM at pH 7.4 and 33.3 µM at pH 5.5, and the final volume of the solution was 250 µL. Each tube was shaken at 1900 rpm for 15 min. Each sample was centrifuged under centrifugation conditions (4°C, 400 g, 5 min), and 100 µL of the supernatant was transferred to a clear 96-well plate and the absorbance at 545 nm was measured. Untreated red blood cells were used as the negative control. 1 w/v% Triton-X was used as the positive control. The hemolysis activity of each sample was calculated using the following formula: Hemolysis activity (%) = 100×(absorbance of each sample - absorbance of negative control)/(absorbance of positive control - absorbance of negative control).

Data set [5] is described as follows: Particle size, PdI and zeta potential of mRNA-encapsulating LNPs by dynamic light scattering (Experimental Example 6). The format is physicochemical. Particulars: mRNA-encapsulating LNP; for zeta potential (mV): cationic lipid:DOPC:Chol=49:7.5:42.5:1, dispersion in TBS (Tables 8-1, 8-2); for PdI / particle size (nm): cationic lipid:DOPC:Chol=49:7.5:42.5:1, dispersion in TBS, dynamic light scattering (Tables 8-1, 8-2). The procedure:
An acidic buffer solution (total amount: 1300 µL) of nucleic acid was prepared by weighing 6.5 µg of mRNA solution (0.6 mg/mL) in a 5 mL tube and adding acidic citrate buffer (20 mM, pH 5.0).
An acidic buffer solution of nucleic acid and an ethanol solution of lipid were each weighed in a syringe. […] The obtained concentrate was diluted with TBS to a lipid concentration of 2 mM to give a dispersion containing LNP.
The particle size, PdI (Polydispersity Index), and zeta potential of the mRNA-encapsulating LNP prepared by the method of the above-mentioned 1 were measured by a dynamic light scattering method (Zetasizer Nano; Malvern). […]

Where [6] appears, read: pH of the endosomal environment (5.5), final lipid concentration 33.3 µM, Fig. 4, versus LNP of Comparative Example.
Setting [7] is: physiological pH (7.4), final lipid concentration 100 µM, Fig. 3.
The mark [8] stands for this setting: mRNA-encapsulating LNP containing the cationic lipid, dispersion in PBS (Table 5-3).
[9] abbreviates: mRNA-encapsulating LNP containing the cationic lipid, dispersion in PBS, dynamic light scattering (Table 5-3).

Method for HeLa cells: LNP encapsulating mRNA that expresses luciferase (cationic lipid:DOPC:Chol:DMG-PEG2k = 50:10:40:1 (molar ratio)) was prepared by the method described in [Experimental Example 2], 1.
HeLa cells, which are human cervical cancer cells, were seeded in a 3.5 cm dish at 5.0×10^4 cells/2 mL/Dish 24 hours before transfection. After 24 hr, the medium was changed to a culture medium (D-MEM) containing 0.1 mM D-luciferin. The prepared mRNA-encapsulating LNP was diluted with PBS to an mRNA concentration of about 1 µg/mL. The diluted mRNA-encapsulating LNP solution (about 200 µL, mRNA: 0.2 µg) was added to a 3.5 cm dish, and set in an incubator luminometer KronosDio. The luminescence intensity of luciferase was measured for 2 min every one hour. The cumulative luciferase luminescence intensity in 24 hr was calculated from the obtained time change of expression. […] In Comparative Example, the cationic lipid described in Table 2 was used.

For `CCCCCCCC/C=C\CCCCCCCC(=O)O[C@H](C/C=C\CCCCCCCC(=O)Oc1ccc(CC(=O)OCCC2CCN(CCSSCCN3CCC(CCOC(=O)Cc4ccc(OC(=O)CCCCCCC/C=C\C[C@H](CCCCCC)OC(=O)CCCCCCC/C=C\CCCCCCCC)cc4)CC3)CC2)cc1)CCCCCC` [compound 4], in data set [1], the “Liposomal pKa” value came out at 6.25.
Regarding `CCCCCCCC/C=C\CCCCCCCC(=O)Oc1ccc(CC(=O)OCCC2CCN(CCSSCCN3CCC(CCOC(=O)Cc4ccc(OC(=O)CCCC(=O)OC[C@H](COC(=O)CCCCCC)OC(=O)CCCCCC)cc4)CC3)CC2)cc1` [compound 14], the hemolysis activity result in the data set on mouse red blood cells [2] (pH of the endosomal environment (5.5), final lipid concentration 33.3 µM, Fig. 2, versus LNP of Comparative Example) is reported as “superior hemolysis activity compared to LNP containing the cationic lipid of Comparative Example”; in the data set on mouse red blood cells [2] (physiological pH (7.4), final lipid concentration 100 µM, Fig. 1) it was “did not exhibit hemolysis activity”. Moreover, the “cumulative luciferase luminescence intensity (RLU) in 24 hr” value in the data set with HeLa cells (LNP cationic lipid:DOPC:Chol:DMG-PEG2k = 50:10:40:1, mRNA 0.2 µg per dish, E+0a means 10^a) came to 1.56E+08 RLU. Besides, the relative luminescence intensity in the data set on HeLa cells (cumulative intensity in 24 hr relative to cationic lipid of Comparative Example) came to 8.44. For the same compound, in the data set with liver, the “amount of luminescence (photons/sec) in liver” value (“amount … (photons/sec) in liver” below) amounted to 6.12E+09 photons/sec. For the same compound, in the data set on liver, the “relative amount of luminescence” value turned out to be 4.03. Moreover, the PdI in data set [3] (mRNA-encapsulating LNP, cationic lipid:DOPC:Chol = 50:10:40 (molar ratio) + DMG-PEG2k about 1 mol, Polydispersity Index, dynamic light scattering) was 0.073. Besides, the “zeta potential (mV)” value in data set [3] (mRNA-encapsulating LNP, cationic lipid:DOPC:Chol = 50:10:40 (molar ratio) + DMG-PEG2k about 1 mol, Zetasizer Nano) is on record as -2.80 mV. The “particle size (nm)” value in data set [3] (mRNA-encapsulating LNP, cationic lipid:DOPC:Chol = 50:10:40 (molar ratio) + DMG-PEG2k about 1 mol, dynamic light scattering) was 92.18 nm.
With `CCCCCCCC/C=C\CCCCCCCC(=O)Oc1ccc(CC(=O)OCCC2CCN(CCSSCCN3CCC(CCOC(=O)Cc4ccc(OC(=O)CCCCCCCC(OC(=O)CC)C(CCCCCCCC)OC(=O)CC)cc4)CC3)CC2)cc1` (stereo not drawn) [compound 94], the hemolysis activity result with mouse red blood cells [4] (setting [6]) is given as “superior hemolysis activity compared to the LNP containing the cationic lipid of Comparative Example”. Besides, in the data set with mouse red blood cells [4] (setting [7]), the hemolysis activity entry is reported as “none”. In addition, in the data set with liver, the “amount … (photons/sec) in liver” value was found to be 9.40E+09 photons/sec and the “relative amount of luminescence” value was 6.18. For the same compound, in data set [3] (setting [8]), the “zeta potential (mV)” value was -2.40 mV. For the same compound, in data set [3] (setting [9]), the PdI amounted to 0.048 and the “particle size (nm)” value is listed as 88.0 nm. Besides, in data set [5], the “zeta potential (mV)” value is given as -4.45 mV, the PdI was 0.121 and the “particle size (nm)” value worked out at 119.7 nm.
As to `CCCCCCCC(=O)OC(CC=CCCCCCCCC(=O)Oc1ccc(CC(=O)OCCC2CCN(CCSSCCN3CCC(CCOC(=O)Cc4ccc(OC(=O)CCCCCCCC=CCC(CCCCCC)OC(=O)CCCCC)cc4)CC3)CC2)cc1)CCCCCC` (stereo not drawn) [compound 162], the hemolysis activity entry was “superior hemolysis activity compared to the LNP containing the cationic lipid of Comparative Example” in the data set on mouse red blood cells [4] (setting [6]) and “none” with mouse red blood cells [4] (setting [7]). The “amount … (photons/sec) in liver” value in the data set with liver was 4.43E+09 photons/sec. For the same compound, the “relative amount of luminescence” value with liver worked out at 2.85. Moreover, the “zeta potential (mV)” value in data set [3] (setting [8]) is -5.04 mV; in data set [5], -3.44 mV. The PdI in data set [3] (setting [9]) was 0.041; in data set [5], 0.079. In addition, the “particle size (nm)” value in data set [3] (setting [9]) came to 91.2 nm; in data set [5] it was 126 nm.
